Read-outs that look alike come from different tables or passages of the source.
Columns and labels:
Test in all cases: Test B pre-/postemergence plant response
Assay type in all cases: in vivo
[1] = system: lambsquarters (Chenopodium album); details: for pest or weed control at 62 g/ha: 62 g ai/ha
In short: (§1)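 Pre-em in loam/sand; post-em at 1–4 leaf (2–18 cm) in peat mix. Solvent + surfactant formulation. Greenhouse 13–15 d; visual % control vs untreated, 0–100.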

[2] = system: yellow nutsedge (Cyperus esculentus); details: for pest or weed control at 16 g/ha: 16 g ai/ha; for pest or weed control at 16 g/ha / pest or weed control at 31 g/ha / pest or weed control at 62 g/ha: read-out: Plant response rating, Nutsedge, Yellow; for pest or weed control at 31 g/ha: 31 g ai/ha; for pest or weed control at 62 g/ha: 62 g ai/ha
In short: as §1

[3] = system: large crabgrass (Digitaria sanguinalis); details: for pest or weed control at 16 g/ha: 16 g ai/ha; for pest or weed control at 16 g/ha / pest or weed control at 31 g/ha / pest or weed control at 62 g/ha: read-out: Plant response rating, Crabgrass, Large; for pest or weed control at 31 g/ha: 31 g ai/ha; for pest or weed control at 62 g/ha: 62 g ai/ha
In short: as §1

[4] = system: downy bromegrass (Bromus tectorum); details: for pest or weed control at 16 g/ha: 16 g ai/ha; for pest or weed control at 16 g/ha / pest or weed control at 31 g/ha / pest or weed control at 62 g/ha: read-out: Plant response rating, Bromegrass, Downy; for pest or weed control at 31 g/ha: 31 g ai/ha; for pest or weed control at 62 g/ha: 62 g ai/ha
In short: as §1

[5] = system: johnsongrass (Sorghum halepense); details: for pest or weed control at 16 g/ha: 16 g ai/ha; for pest or weed control at 16 g/ha / pest or weed control at 31 g/ha / pest or weed control at 62 g/ha: read-out: Plant response rating, Johnsongrass; for pest or weed control at 31 g/ha: 31 g ai/ha; for pest or weed control at 62 g/ha: 62 g ai/ha
In short: as §1

wild oat (Avena fatua) = details: for pest or weed control at 16 g/ha: 16 g ai/ha; for pest or weed control at 62 g/ha: 62 g ai/ha
In short: as §1

corn (Zea mays) = details: for Corn plant response rating (crop injury, 0 = no effect, 100 = complete kill) at 16 g/ha: 16 g ai/ha; for Corn plant response rating (crop injury, 0 = no effect, 100 = complete kill) at 31 g/ha: 31 g ai/ha; for Corn plant response rating (crop injury, 0 = no effect, 100 = complete kill) at 62 g/ha: 62 g ai/ha
In short: as §1

[6] = system: Italian ryegrass (Lolium multiflorum); details: for pest or weed control at 31 g/ha: 31 g ai/ha; for pest or weed control at 62 g/ha: 62 g ai/ha
In short: as §1

kochia (Kochia scoparia) = details: for pest or weed control at 16 g/ha: 16 g ai/ha; for pest or weed control at 16 g/ha / pest or weed control at 31 g/ha / pest or weed control at 62 g/ha: read-out: Plant response rating, Kochia; for pest or weed control at 31 g/ha: 31 g ai/ha; for pest or weed control at 62 g/ha: 62 g ai/ha
In short: as §1

[7] = Preemergence, 125 g ai/ha, 0 to 100 scale
[8] = Cyperus, pre-emergence, Preemergence, scale 0 to 100 (0 no effect, 100 complete control)
[9] = Digitaria sanguinalis, pre-emergence, Preemergence, scale 0 to 100 (0 no effect, 100 complete control)
[10] = Bromus tectorum, pre-emergence, Preemergence, scale 0 to 100 (0 no effect, 100 complete control)
[11] = Sorghum halepense, pre-emergence, Preemergence, scale 0 to 100 (0 no effect, 100 complete control)
[12] = Avena fatua, pre-emergence, Preemergence, scale 0 to 100 (0 no effect, 100 complete control), read-out: Plant response rating, Oat, Wild
[13] = Zea mays, pre-emergence, Preemergence, scale 0 to 100 (0 no effect, 100 complete control)
[14] = Lolium multiflorum, pre-emergence, Preemergence, scale 0 to 100 (0 no effect, 100 complete control), read-out: Plant response rating, Ryegrass, Italian
[15] = Bassia scoparia, pre-emergence, Preemergence, scale 0 to 100 (0 no effect, 100 complete control)

## O=C1CCCC(O)=C1C(=O)c1cnc(-c2ccccc2)n(-c2ccccc2)c1=O [Compound 2, 5-[(2-hydroxy-6-oxo-1-cyclohexen-1-yl)carbonyl]-2,3-diphenyl-4(3H)-pyrimidinone]
[1]; Chenopodium album, post-emergence, Postemergence, scale 0 (no effect) to 100 (complete control), 13 to 15 days, read-out: Plant response rating, Lambsquarters
  pest or weed control at 62 g/ha: 90%
[1]; Chenopodium album, post-emergence, Postemergence, 125 g ai/ha, visual rating after 13 to 15 days, scale 0 (no effect) to 100 (complete control)
  pest or weed control at 125 g/ha: 95%
[1]; Chenopodium album, pre-emergence, Preemergence, 16 g ai/ha, scale 0 to 100 (0 no effect, 100 complete control), read-out: Plant response rating, Lambsquarters
  pest or weed control at 16 g/ha: 100%
[1]; Chenopodium album, pre-emergence, Preemergence, 31 g ai/ha, scale 0 to 100 (0 no effect, 100 complete control), read-out: Plant response rating, Lambsquarters
  pest or weed control at 31 g/ha: 100%
[1]; Chenopodium album, pre-emergence, Preemergence, scale 0 to 100, 0 no effect, 100 complete control, read-out: Plant response rating, Lambsquarters
  pest or weed control at 62 g/ha: 100%
[1]; [7]
  Lambsquarters plant response rating: 100
[2]; Cyperus, post-emergence, Postemergence, 0 to 100 scale
  pest or weed control at 16 g/ha: 40%
[2]; Cyperus, post-emergence, Postemergence, scale 0 to 100 (0 no effect, 100 complete control)
  pest or weed control at 31 g/ha: 45%
[2]; Cyperus, post-emergence, Postemergence, scale 0 (no effect) to 100 (complete control), 13 to 15 days
  pest or weed control at 62 g/ha: 60%
[2]; Cyperus, post-emergence, Postemergence, 125 g ai/ha, visual rating after 13 to 15 days, scale 0 (no effect) to 100 (complete control)
  pest or weed control at 125 g/ha: 75%
[2]; [8]
  pest or weed control at 16 g/ha: 0%
  pest or weed control at 31 g/ha: 15%
  pest or weed control at 62 g/ha: 40%
[2]; [7]
  Nutsedge, Yellow plant response rating: 70
[3]; Digitaria sanguinalis, post-emergence, Postemergence, 0 to 100 scale
  pest or weed control at 16 g/ha: 70%
[3]; Digitaria sanguinalis, post-emergence, Postemergence, scale 0 to 100 (0 no effect, 100 complete control)
  pest or weed control at 31 g/ha: 80%
[3]; Digitaria sanguinalis, post-emergence, Postemergence, scale 0 (no effect) to 100 (complete control), 13 to 15 days
  pest or weed control at 62 g/ha: 85%
[3]; Digitaria sanguinalis, post-emergence, Postemergence, 125 g ai/ha, visual rating after 13 to 15 days, scale 0 (no effect) to 100 (complete control)
  pest or weed control at 125 g/ha: 90%
[3]; [9]
  pest or weed control at 16 g/ha: 0%
  pest or weed control at 31 g/ha: 15%
[3]; Digitaria sanguinalis, pre-emergence, Preemergence, scale 0 to 100, 0 no effect, 100 complete control
  pest or weed control at 62 g/ha: 100%
[3]; [7]
  Crabgrass, Large plant response rating: 100
[4]; Bromus tectorum, post-emergence, Postemergence, 0 to 100 scale
  pest or weed control at 16 g/ha: 20%
[4]; Bromus tectorum, post-emergence, Postemergence, scale 0 to 100 (0 no effect, 100 complete control)
  pest or weed control at 31 g/ha: 35%
[4]; Bromus tectorum, post-emergence, Postemergence, scale 0 (no effect) to 100 (complete control), 13 to 15 days
  pest or weed control at 62 g/ha: 60%
[4]; Bromus tectorum, post-emergence, Postemergence, 125 g ai/ha, visual rating after 13 to 15 days, scale 0 (no effect) to 100 (complete control)
  pest or weed control at 125 g/ha: 80%
[4]; [10]
  pest or weed control at 16 g/ha: 0%
  pest or weed control at 31 g/ha: 0%
[4]; Bromus tectorum, pre-emergence, Preemergence, scale 0 to 100, 0 no effect, 100 complete control
  pest or weed control at 62 g/ha: 0%
[4]; [7]
  Bromegrass, Downy plant response rating: 5
[5]; [7]
  Johnsongrass plant response rating: 80
[5]; Sorghum halepense, post-emergence, Postemergence, 0 to 100 scale
  pest or weed control at 16 g/ha: 75%
[5]; Sorghum halepense, post-emergence, Postemergence, scale 0 to 100 (0 no effect, 100 complete control)
  pest or weed control at 31 g/ha: 85%
[5]; Sorghum halepense, post-emergence, Postemergence, scale 0 (no effect) to 100 (complete control), 13 to 15 days
  pest or weed control at 62 g/ha: 90%
[5]; Sorghum halepense, post-emergence, Postemergence, 125 g ai/ha, visual rating after 13 to 15 days, scale 0 (no effect) to 100 (complete control)
  pest or weed control at 125 g/ha: 98%
[5]; [11]
  pest or weed control at 16 g/ha: 0%
  pest or weed control at 31 g/ha: 60%
[5]; Sorghum halepense, pre-emergence, Preemergence, scale 0 to 100, 0 no effect, 100 complete control
  pest or weed control at 62 g/ha: 65%
Wild oat (Avena fatua); Avena fatua, post-emergence, Postemergence, 0 to 100 scale, read-out: Plant response rating, Oat, Wild
  pest or weed control at 16 g/ha: 5%
Wild oat (Avena fatua); Avena fatua, post-emergence, Postemergence, 31 g ai/ha, scale 0 to 100 (0 no effect, 100 complete control), read-out: Plant response rating, Oat, Wild
  pest or weed control at 31 g/ha: 30%
Wild oat (Avena fatua); Avena fatua, post-emergence, Postemergence, scale 0 (no effect) to 100 (complete control), 13 to 15 days, read-out: Plant response rating, Oat, Wild
  pest or weed control at 62 g/ha: 45%
Wild oat (Avena fatua); Avena fatua, post-emergence, Postemergence, 125 g ai/ha, visual rating after 13 to 15 days, scale 0 (no effect) to 100 (complete control)
  pest or weed control at 125 g/ha: 55%
Wild oat (Avena fatua); [12]
  pest or weed control at 16 g/ha: 0%
  pest or weed control at 62 g/ha: 5%
Wild oat (Avena fatua); [7]
  Oat, Wild plant response rating: 50
Corn (Zea mays); [7]
  Corn plant response rating: 0
Corn (Zea mays); Zea mays, post-emergence, Postemergence, 0 to 100 scale
  Corn plant response rating (crop injury, 0 = no effect, 100 = complete kill) at 16 g/ha: 15%
Corn (Zea mays); Zea mays, post-emergence, Postemergence, scale 0 to 100 (0 no effect, 100 complete control)
  Corn plant response rating (crop injury, 0 = no effect, 100 = complete kill) at 31 g/ha: 15%
Corn (Zea mays); Zea mays, post-emergence, Postemergence, scale 0 (no effect) to 100 (complete control), 13 to 15 days
  Corn plant response rating (crop injury, 0 = no effect, 100 = complete kill) at 62 g/ha: 25%
Corn (Zea mays); Zea mays, post-emergence, Postemergence, 125 g ai/ha, visual rating after 13 to 15 days, scale 0 (no effect) to 100 (complete control)
  Corn plant response rating (crop injury, 0 = no effect, 100 = complete kill) at 125 g/ha: 35%
Corn (Zea mays); [13]
  Corn plant response rating (crop injury, 0 = no effect, 100 = complete kill) at 16 g/ha: 0%
  Corn plant response rating (crop injury, 0 = no effect, 100 = complete kill) at 31 g/ha: 0%
Corn (Zea mays); Zea mays, pre-emergence, Preemergence, scale 0 to 100, 0 no effect, 100 complete control
  Corn plant response rating (crop injury, 0 = no effect, 100 = complete kill) at 62 g/ha: 0%
[6]; Lolium multiflorum, post-emergence, 16 g ai/ha, Postemergence, 0 to 100 scale, read-out: Plant response rating, Ryegrass, Italian
  pest or weed control at 16 g/ha: 0%
[6]; Lolium multiflorum, post-emergence, Postemergence, scale 0 to 100 (0 no effect, 100 complete control), read-out: Plant response rating, Ryegrass, Italian
  pest or weed control at 31 g/ha: 0%
[6]; Lolium multiflorum, post-emergence, Postemergence, scale 0 (no effect) to 100 (complete control), 13 to 15 days, read-out: Plant response rating, Ryegrass, Italian
  pest or weed control at 62 g/ha: 40%
[6]; Lolium multiflorum, post-emergence, Postemergence, 125 g ai/ha, visual rating after 13 to 15 days, scale 0 (no effect) to 100 (complete control)
  pest or weed control at 125 g/ha: 40%
[6]; [14]
  pest or weed control at 31 g/ha: 0%
  pest or weed control at 62 g/ha: 0%
[6]; [7]
  Ryegrass, Italian plant response rating: 5
Kochia (Kochia scoparia); Bassia scoparia, post-emergence, Postemergence, 0 to 100 scale
  pest or weed control at 16 g/ha: 55%
Kochia (Kochia scoparia); Bassia scoparia, post-emergence, Postemergence, scale 0 to 100 (0 no effect, 100 complete control)
  pest or weed control at 31 g/ha: 60%
Kochia (Kochia scoparia); Bassia scoparia, post-emergence, Postemergence, scale 0 (no effect) to 100 (complete control), 13 to 15 days
  pest or weed control at 62 g/ha: 75%
Kochia (Kochia scoparia); Bassia scoparia, post-emergence, Postemergence, 125 g ai/ha, visual rating after 13 to 15 days, scale 0 (no effect) to 100 (complete control)
  pest or weed control at 125 g/ha: 80%
Kochia (Kochia scoparia); [15]
  pest or weed control at 16 g/ha: 0%
  pest or weed control at 31 g/ha: 100%
  pest or weed control at 62 g/ha: 100%
Kochia (Kochia scoparia); [7]
  Kochia plant response rating: 100

— patent publication US8952024B2, “Herbicidal pyrimidone derivatives” (E I du Pont de Nemours and Company, priority 2009, dated 2015)
